Structures can show the parent of a compound that is named as a salt. Peptide text beside a SMILES is read from it. * marks the point of attachment. For = O=C*

The data set is described as follows: FIG. 10. The method, then:
Table printed on a drawing sheet, FIG. 10
The patent's description of the figure: FIG. 10
First reader's note: Storage stability of Foxy-5 free acid and its salts shown as HPLC purity and impurity levels (Ala, aspartimide, dimer) initially and after 2 and 4 weeks at 40°C; decimal commas as printed.
Take `CSCC[C@H](NC=O)C(=O)N[C@@H](CC(=O)O)C(=O)NCC(=O)N[C@@H](CS)C(=O)N[C@@H](CCC(=O)O)C(=O)N[C@@H](CC(C)C)C(=O)O` [NH3 Tri salt] (For-MDGCEL-OH): the “After 2 weeks @ 40°C | Ala (area%)” value was 0 area%, the “After 2 weeks @ 40°C | Aspartimide (area%)” value is listed as 4,10 area%, the “After 2 weeks @ 40°C | Dimer (area%)” value is reported as 2,95 area% and the “After 2 weeks @ 40°C | HPLC purity (area%)” value is 88,64 area%. In addition, the “After 4 weeks @ 40°C | Ala (area%)” value was 0,00 area%, the “After 4 weeks @ 40°C | Aspartimide (area%)” value is listed as 3,88 area%, the “After 4 weeks @ 40°C | Dimer (area%)” value is listed as 3,37 area% and the “After 4 weeks @ 40°C | HPLC purity (area%)” value was 86,45 area%.

For `CSCC[C@H](NC=O)C(=O)N[C@@H](CC(=O)O)C(=O)NCC(=O)N[C@@H](CS)C(=O)N[C@@H](CCC(=O)O)C(=O)N[C@@H](CC(C)C)C(=O)O` [HIS Tri salt] (For-MDGCEL-OH), the “After 2 weeks @ 40°C | Ala (area%)” value worked out at 0 area%, the “After 2 weeks @ 40°C | Aspartimide (area%)” value is given as 1,97 area%, the “After 2 weeks @ 40°C | Dimer (area%)” value was 1,10 area% and the “After 2 weeks @ 40°C | HPLC purity (area%)” value is reported as 96,41 area%. For the same compound, the “After 4 weeks @ 40°C | Ala (area%)” value is recorded as 0,00 area%, the “After 4 weeks @ 40°C | Aspartimide (area%)” value is recorded as 2,43 area%, the “After 4 weeks @ 40°C | Dimer (area%)” value is 0,90 area% and the “After 4 weeks @ 40°C | HPLC purity (area%)” value is 95,32 area%.

Consider `CSCC[C@H](NC=O)C(=O)N[C@@H](CC(=O)O)C(=O)NCC(=O)N[C@@H](CS)C(=O)N[C@@H](CCC(=O)O)C(=O)N[C@@H](CC(C)C)C(=O)O` [DEA Tri salt] (For-MDGCEL-OH), for which the “After 2 weeks @ 40°C | Ala (area%)” value is given as 1,91 area%, the “After 2 weeks @ 40°C | Aspartimide (area%)” value was 5,78 area%, the “After 2 weeks @ 40°C | Dimer (area%)” value was 8,10 area% and the “After 2 weeks @ 40°C | HPLC purity (area%)” value is 82,51 area%. Besides, the “After 4 weeks @ 40°C | Ala (area%)” value was 1,82 area%, the “After 4 weeks @ 40°C | Aspartimide (area%)” value is 7,20 area%, the “After 4 weeks @ 40°C | Dimer (area%)” value is recorded as 5,80 area% and the “After 4 weeks @ 40°C | HPLC purity (area%)” value was 80,92 area%.

As for `CSCC[C@H](NC=O)C(=O)N[C@@H](CC(=O)O)C(=O)NCC(=O)N[C@@H](CS)C(=O)N[C@@H](CCC(=O)O)C(=O)N[C@@H](CC(C)C)C(=O)O` [LYS Tri salt] (For-MDGCEL-OH), the “After 2 weeks @ 40°C | Ala (area%)” value is 4,25 area%, the “After 2 weeks @ 40°C | Aspartimide (area%)” value was 1,10 area%, the “After 2 weeks @ 40°C | Dimer (area%)” value is given as 1,80 area% and the “After 2 weeks @ 40°C | HPLC purity (area%)” value was 92,29 area%. Besides, the “After 4 weeks @ 40°C | Ala (area%)” value is recorded as 8,45 area%, the “After 4 weeks @ 40°C | Aspartimide (area%)” value was 1,26 area%, the “After 4 weeks @ 40°C | Dimer (area%)” value is listed as 3,40 area% and the “After 4 weeks @ 40°C | HPLC purity (area%)” value is given as 84,97 area%.

Take `CSCC[C@H](NC=O)C(=O)N[C@@H](CC(=O)O)C(=O)NCC(=O)N[C@@H](CS)C(=O)N[C@@H](CCC(=O)O)C(=O)N[C@@H](CC(C)C)C(=O)O` [HIS Di salt] (For-MDGCEL-OH): the “After 2 weeks @ 40°C | Ala (area%)” value is given as 0 area%, the “After 2 weeks @ 40°C | Aspartimide (area%)” value was 1,97 area%, the “After 2 weeks @ 40°C | Dimer (area%)” value is on record as 0,00 area% and the “After 2 weeks @ 40°C | HPLC purity (area%)” value was 97,40 area%. Also, the “After 4 weeks @ 40°C | Ala (area%)” value was 0,00 area%, the “After 4 weeks @ 40°C | Aspartimide (area%)” value is reported as 2,40 area%, the “After 4 weeks @ 40°C | Dimer (area%)” value is 0,00 area% and the “After 4 weeks @ 40°C | HPLC purity (area%)” value is on record as 96,52 area%.

For `CSCC[C@H](NC=O)C(=O)N[C@@H](CC(=O)O)C(=O)NCC(=O)N[C@@H](CS)C(=O)N[C@@H](CCC(=O)O)C(=O)N[C@@H](CC(C)C)C(=O)O` [TRO Di salt] (For-MDGCEL-OH), the “After 2 weeks @ 40°C | Ala (area%)” value turned out to be 0 area%, the “After 2 weeks @ 40°C | Aspartimide (area%)” value is 2,75 area%, the “After 2 weeks @ 40°C | Dimer (area%)” value is recorded as 0,00 area% and the “After 2 weeks @ 40°C | HPLC purity (area%)” value was 96,51 area%. Also, the “After 4 weeks @ 40°C | Ala (area%)” value was 0,00 area%, the “After 4 weeks @ 40°C | Aspartimide (area%)” value is 4,20 area%, the “After 4 weeks @ 40°C | Dimer (area%)” value is reported as 0,60 area% and the “After 4 weeks @ 40°C | HPLC purity (area%)” value is reported as 93,87 area%.

For `CSCC[C@H](NC=O)C(=O)N[C@@H](CC(=O)O)C(=O)NCC(=O)N[C@@H](CS)C(=O)N[C@@H](CCC(=O)O)C(=O)N[C@@H](CC(C)C)C(=O)O` [NH3 Di salt] (For-MDGCEL-OH), the “After 2 weeks @ 40°C | Ala (area%)” value was 0 area%, the “After 2 weeks @ 40°C | Aspartimide (area%)” value is 4,45 area%, the “After 2 weeks @ 40°C | Dimer (area%)” value is 0,38 area% and the “After 2 weeks @ 40°C | HPLC purity (area%)” value is listed as 92,27 area%. In addition, the “After 4 weeks @ 40°C | Ala (area%)” value is 0,00 area%, the “After 4 weeks @ 40°C | Aspartimide (area%)” value was 5,52 area%, the “After 4 weeks @ 40°C | Dimer (area%)” value was 0,27 area% and the “After 4 weeks @ 40°C | HPLC purity (area%)” value is given as 89,75 area%.

In the case of `CSCC[C@H](NC=O)C(=O)N[C@@H](CC(=O)O)C(=O)NCC(=O)N[C@@H](CS)C(=O)N[C@@H](CCC(=O)O)C(=O)N[C@@H](CC(C)C)C(=O)O` [NMG Di salt] (For-MDGCEL-OH), the “After 2 weeks @ 40°C | Ala (area%)” value is 0 area%, the “After 2 weeks @ 40°C | Aspartimide (area%)” value is on record as 3,85 area%, the “After 2 weeks @ 40°C | Dimer (area%)” value is on record as 0,93 area% and the “After 2 weeks @ 40°C | HPLC purity (area%)” value is on record as 93,22 area%. Moreover, the “After 4 weeks @ 40°C | Ala (area%)” value is recorded as 0,00 area%, the “After 4 weeks @ 40°C | Aspartimide (area%)” value was 6,17 area%, the “After 4 weeks @ 40°C | Dimer (area%)” value is given as 0,81 area% and the “After 4 weeks @ 40°C | HPLC purity (area%)” value is 91,23 area%.

Regarding `CSCC[C@H](NC=O)C(=O)N[C@@H](CC(=O)O)C(=O)NCC(=O)N[C@@H](CS)C(=O)N[C@@H](CCC(=O)O)C(=O)N[C@@H](CC(C)C)C(=O)O` [Na Tri salt] (For-MDGCEL-OH), the “After 2 weeks @ 40°C | Ala (area%)” value is 13,4 area%, the “After 2 weeks @ 40°C | Aspartimide (area%)” value is 0,53 area%, the “After 2 weeks @ 40°C | Dimer (area%)” value is listed as 13,20 area% and the “After 2 weeks @ 40°C | HPLC purity (area%)” value was 68,15 area%. Further, the “After 4 weeks @ 40°C | Ala (area%)” value was 14,70 area%, the “After 4 weeks @ 40°C | Aspartimide (area%)” value is listed as 0,30 area%, the “After 4 weeks @ 40°C | Dimer (area%)” value is 16,80 area% and the “After 4 weeks @ 40°C | HPLC purity (area%)” value is 60,34 area%.

Take `CSCC[C@H](NC=O)C(=O)N[C@@H](CC(=O)O)C(=O)NCC(=O)N[C@@H](CS)C(=O)N[C@@H](CCC(=O)O)C(=O)N[C@@H](CC(C)C)C(=O)O` [DEA Di salt] (For-MDGCEL-OH): the “After 2 weeks @ 40°C | Ala (area%)” value was 0 area%, the “After 2 weeks @ 40°C | Aspartimide (area%)” value is on record as 4,98 area%, the “After 2 weeks @ 40°C | Dimer (area%)” value is 1,18 area% and the “After 2 weeks @ 40°C | HPLC purity (area%)” value is 92,88 area%. Besides, the “After 4 weeks @ 40°C | Ala (area%)” value is reported as 0,25 area%, the “After 4 weeks @ 40°C | Aspartimide (area%)” value is on record as 7,50 area%, the “After 4 weeks @ 40°C | Dimer (area%)” value is 3,10 area% and the “After 4 weeks @ 40°C | HPLC purity (area%)” value is reported as 87,11 area%.

On to `CSCC[C@H](NC=O)C(=O)N[C@@H](CC(=O)O)C(=O)NCC(=O)N[C@@H](CS)C(=O)N[C@@H](CCC(=O)O)C(=O)N[C@@H](CC(C)C)C(=O)O` [NMG Tri salt] (For-MDGCEL-OH), for which the “After 2 weeks @ 40°C | Ala (area%)” value is 0 area%, the “After 2 weeks @ 40°C | Aspartimide (area%)” value was 1,76 area%, the “After 2 weeks @ 40°C | Dimer (area%)” value was 1,13 area% and the “After 2 weeks @ 40°C | HPLC purity (area%)” value is on record as 95,97 area%. Besides, the “After 4 weeks @ 40°C | Ala (area%)” value is recorded as 0,00 area%, the “After 4 weeks @ 40°C | Aspartimide (area%)” value is given as 3,06 area%, the “After 4 weeks @ 40°C | Dimer (area%)” value is listed as 0,82 area% and the “After 4 weeks @ 40°C | HPLC purity (area%)” value is recorded as 95,14 area%.

Take `CSCC[C@H](NC=O)C(=O)N[C@@H](CC(=O)O)C(=O)NCC(=O)N[C@@H](CS)C(=O)N[C@@H](CCC(=O)O)C(=O)N[C@@H](CC(C)C)C(=O)O` [TRO Tri salt] (For-MDGCEL-OH): the “After 2 weeks @ 40°C | Ala (area%)” value stood at 0 area%, the “After 2 weeks @ 40°C | Aspartimide (area%)” value is 8,24 area%, the “After 2 weeks @ 40°C | Dimer (area%)” value is on record as 0,63 area% and the “After 2 weeks @ 40°C | HPLC purity (area%)” value is on record as 87,27 area%. The “After 4 weeks @ 40°C | Ala (area%)” value is listed as 0,00 area%, the “After 4 weeks @ 40°C | Aspartimide (area%)” value is on record as 11,40 area%, the “After 4 weeks @ 40°C | Dimer (area%)” value was 1,28 area% and the “After 4 weeks @ 40°C | HPLC purity (area%)” value is on record as 78,60 area%.

On to `CSCC[C@H](NC=O)C(=O)N[C@@H](CC(=O)O)C(=O)NCC(=O)N[C@@H](CS)C(=O)N[C@@H](CCC(=O)O)C(=O)N[C@@H](CC(C)C)C(=O)O` [Foxy-5 free acid] (For-MDGCEL-OH), for which the “After 2 weeks @ 40°C | Ala (area%)” value amounted to 0 area%, the “After 2 weeks @ 40°C | Aspartimide (area%)” value was 0,75 area%, the “After 2 weeks @ 40°C | Dimer (area%)” value was 0,00 area% and the “After 2 weeks @ 40°C | HPLC purity (area%)” value is 98,40 area%. Also, the “After 4 weeks @ 40°C | Ala (area%)” value is 0,00 area%, the “After 4 weeks @ 40°C | Aspartimide (area%)” value is given as 0,80 area%, the “After 4 weeks @ 40°C | Dimer (area%)” value was 0,00 area% and the “After 4 weeks @ 40°C | HPLC purity (area%)” value was 98,21 area%.

In the case of `CSCC[C@H](NC=O)C(=O)N[C@@H](CC(=O)O)C(=O)NCC(=O)N[C@@H](CS)C(=O)N[C@@H](CCC(=O)O)C(=O)N[C@@H](CC(C)C)C(=O)O` [LYS Di salt] (For-MDGCEL-OH), the “After 2 weeks @ 40°C | Ala (area%)” value came to 0 area%, the “After 2 weeks @ 40°C | Aspartimide (area%)” value is given as 2,50 area%, the “After 2 weeks @ 40°C | Dimer (area%)” value is recorded as 0,00 area% and the “After 2 weeks @ 40°C | HPLC purity (area%)” value is 97,06 area%. Besides, the “After 4 weeks @ 40°C | Ala (area%)” value is recorded as 0,47 area%, the “After 4 weeks @ 40°C | Aspartimide (area%)” value is 2,80 area%, the “After 4 weeks @ 40°C | Dimer (area%)” value is reported as 0,55 area% and the “After 4 weeks @ 40°C | HPLC purity (area%)” value was 95,17 area%.

Source of the values: US20250325485A1, “STABLE COMPOSITIONS OF FOXY-5 HEXAPEPTIDE WITH HIGH SOLUBILITY” (WNTRESEARCH AB, priority 2021, published 2025).
